Assay [1] concerns the target T1, human GcgR (Homo sapiens, UniProt P47871).
T1 construct: expressed in transfected cells; crude membranes
Put plainly: [125I]-Glucagon binding, SPA with WGA beads, 0.1% bacitracin. Particulars: geometric mean, read-out: hGcgR Ki. The gist of the method:
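SPA competition binding with WGA beads on crude membranes from HEK293 cells stably expressing hGcgR. Buffer: 25 mM HEPES pH 7.4, 2.5 mM CaCl2, 1 mM MgCl2, 0.1% bacitracin, 0.003% Tween-20; 10-point 3-fold dilutions, NSB with 1 μM Gcg.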

Assay [2] has as its target T2, human GLP-1R (Homo sapiens, UniProt P43220).
T2 construct: expressed in transfected cells; crude membranes
The experiment in a line: [125I]-GLP-1 binding, SPA with WGA beads, 0.1% bacitracin. Particulars: geometric mean, read-out: hGLP1R Ki. Summed up:
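Binding buffer was 25 mM HEPES pH 7.4 with 2.5 mM CaCl2, 1 mM MgCl2, 0.1% (w/v) bacitracin, 0.003% Tween-20 and EDTA-free protease inhibitors. Four-parameter regression gave IC50, converted to Ki (geometric mean, SEM, n independent days).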

Assay [3] addresses T3, human GIPR (Homo sapiens, UniProt P48546).
T3 construct: expressed in transfected cells; crude membranes
T3 sequence (P48546 22-466): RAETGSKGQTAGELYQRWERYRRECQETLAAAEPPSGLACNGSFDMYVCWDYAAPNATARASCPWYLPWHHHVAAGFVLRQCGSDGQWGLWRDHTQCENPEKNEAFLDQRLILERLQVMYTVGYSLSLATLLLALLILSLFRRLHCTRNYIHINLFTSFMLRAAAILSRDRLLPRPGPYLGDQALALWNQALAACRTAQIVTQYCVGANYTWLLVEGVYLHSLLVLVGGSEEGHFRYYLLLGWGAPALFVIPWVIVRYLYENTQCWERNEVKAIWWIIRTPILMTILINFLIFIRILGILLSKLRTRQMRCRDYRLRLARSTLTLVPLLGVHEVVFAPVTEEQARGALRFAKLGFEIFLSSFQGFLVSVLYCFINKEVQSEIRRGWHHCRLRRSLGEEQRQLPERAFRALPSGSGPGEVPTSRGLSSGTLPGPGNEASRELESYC
Put plainly: [125I]-GIP binding, SPA with WGA beads, 0.1% bacitracin. Particulars: geometric mean, read-out: hGIPR Ki. Summed up: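 Ki values are geometric means (SEM, n independent days), derived from four-parameter nonlinear regression of IC50. Membranes came from hGIPR-expressing CHO cells.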

Results on two compounds are retold here after patent publication US12723063B2, “GIPR-agonist compounds” (Eli Lilly and Company, priority 2019, dated 2026).

*1 amine or outer side, *2 acyl side, *3 side chain or, on linkers, in order; H or OH if unused. Where a SMILES comes first, the peptide text is derived from it. Side-chain parts run from the residue outwards. [ ]: non-standard residue; d: D form. The star is where a group is joined. C20 diacid = O=C(O)CCCCCCCCCCCCCCCCCCC(=O)*; γGlu = O=C(O)[C@H](CCC(=O)[*:2])N[*:1]; αMeL = CC(C)C[C@](C)(N)C(=O)O; AEEA = NCCOCCOCC(=O)O; Aib = CC(C)(N)C(=O)O

T2 sequence (P43220 24-463): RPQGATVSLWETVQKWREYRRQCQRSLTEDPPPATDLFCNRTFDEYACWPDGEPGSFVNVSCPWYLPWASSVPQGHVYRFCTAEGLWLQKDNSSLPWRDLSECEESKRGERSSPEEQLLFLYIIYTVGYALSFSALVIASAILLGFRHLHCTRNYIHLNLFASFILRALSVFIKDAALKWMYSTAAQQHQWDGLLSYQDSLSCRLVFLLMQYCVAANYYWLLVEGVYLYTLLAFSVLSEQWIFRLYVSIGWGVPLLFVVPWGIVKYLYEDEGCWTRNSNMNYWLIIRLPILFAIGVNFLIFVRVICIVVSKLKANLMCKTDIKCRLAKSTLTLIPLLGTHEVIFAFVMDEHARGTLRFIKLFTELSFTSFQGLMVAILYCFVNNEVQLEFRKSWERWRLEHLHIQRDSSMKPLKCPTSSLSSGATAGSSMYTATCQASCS
T1 sequence (P47871 26-477): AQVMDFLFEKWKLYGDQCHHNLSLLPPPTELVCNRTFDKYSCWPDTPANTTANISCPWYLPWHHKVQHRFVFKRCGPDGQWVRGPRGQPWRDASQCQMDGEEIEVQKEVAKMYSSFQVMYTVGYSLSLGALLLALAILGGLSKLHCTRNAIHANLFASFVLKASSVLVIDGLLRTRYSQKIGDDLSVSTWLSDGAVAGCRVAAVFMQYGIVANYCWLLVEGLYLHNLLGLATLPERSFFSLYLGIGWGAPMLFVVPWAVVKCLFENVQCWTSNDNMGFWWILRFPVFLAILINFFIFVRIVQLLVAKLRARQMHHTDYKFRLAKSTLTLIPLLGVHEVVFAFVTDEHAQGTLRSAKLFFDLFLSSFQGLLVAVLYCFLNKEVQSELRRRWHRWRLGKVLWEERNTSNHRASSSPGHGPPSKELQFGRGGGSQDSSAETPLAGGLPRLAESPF

For the compound `CC[C@H](C)[C@H](NC(=O)[C@H](Cc1ccccc1)NC(=O)[C@@H](NC(=O)CNC(=O)[C@H](CCC(=O)O)NC(=O)C(C)(C)NC(=O)[C@@H](N)Cc1ccc(O)cc1)[C@@H](C)O)C(=O)N[C@@H](CO)C(=O)N[C@@H](CC(=O)O)C(=O)N[C@@H](Cc1ccc(O)cc1)C(=O)N[C@@H](CO)C(=O)N[C@H](C(=O)N[C@@](C)(CC(C)C)C(=O)N[C@@H](CC(C)C)C(=O)N[C@@H](CC(=O)O)C(=O)N[C@@H](CCCCN)C(=O)N[C@@H](CCCCNC(=O)COCCOCCNC(=O)COCCOCCNC(=O)CC[C@H](NC(=O)CCCCCCCCCCCCCCCCCCC(=O)O)C(=O)O)C(=O)N[C@@H](Cc1c[nH]cn1)C(=O)N[C@@H](CCC(N)=O)C(=O)NC(C)(C)C(=O)N[C@@H](CC(=O)O)C(=O)N[C@@H](Cc1ccccc1)C(=O)N[C@H](C(=O)N[C@@H](CCC(=O)O)C(=O)N[C@@H](Cc1c[nH]c2ccccc12)C(=O)N[C@@H](CC(C)C)C(=O)N[C@@H](CC(C)C)C(=O)N[C@@H](CCC(=O)O)C(=O)N[C@H](C(=O)NCC(=O)N1CCC[C@H]1C(=O)N[C@@H](CO)C(=O)N[C@@H](CO)C(=O)NCC(=O)N[C@@H](C)C(=O)N1CCC[C@H]1C(=O)N1CCC[C@H]1C(=O)N1CCC[C@H]1C(=O)N[C@@H](CO)C(N)=O)[C@@H](C)O)C(C)C)[C@@H](C)CC` [Example 71] (H-Y[Aib]EGTFISDYSI[αMeL]LDKK([AEEA-AEEA-γGlu-C20 diacid])HQ[Aib]DFVEWLLETGPSSGAPPPS-NH2), the results for the Ki in assay [1], in assay [2] and in assay [3] were 102 nM, 347 nM and 0.0422 nM, respectively.
The matching figures for `CC[C@H](C)[C@H](NC(=O)[C@H](CC(C)C)NC(=O)[C@@H](NC(=O)CNC(=O)[C@H](CCC(=O)O)NC(=O)C(C)(C)NC(=O)[C@@H](N)Cc1ccc(O)cc1)[C@@H](C)O)C(=O)N[C@@H](CO)C(=O)N[C@@H](CC(=O)O)C(=O)N[C@@H](Cc1ccc(O)cc1)C(=O)N[C@@H](CO)C(=O)N[C@H](C(=O)N[C@@](C)(CC(C)C)C(=O)N[C@@H](CC(C)C)C(=O)N[C@@H](CC(=O)O)C(=O)N[C@@H](CCCCN)C(=O)N[C@@H](CCCCNC(=O)COCCOCCNC(=O)COCCOCCNC(=O)CC[C@H](NC(=O)CCCCCCCCCCCCCCCCCCC(=O)O)C(=O)O)C(=O)N[C@@H](Cc1c[nH]cn1)C(=O)N[C@@H](CCC(N)=O)C(=O)NC(C)(C)C(=O)N[C@@H](CCC(=O)O)C(=O)N[C@@H](Cc1ccccc1)C(=O)N[C@H](C(=O)N[C@@H](CCC(=O)O)C(=O)N[C@@H](Cc1ccc(O)cc1)C(=O)N[C@@H](CC(C)C)C(=O)N[C@@H](CC(C)C)C(=O)N[C@@H](CCC(=O)O)C(=O)N[C@H](C(=O)NCC(=O)N1CCC[C@H]1C(=O)N[C@@H](CO)C(=O)N[C@@H](CO)C(=O)NCC(=O)N[C@@H](C)C(=O)N1CCC[C@H]1C(=O)N1CCC[C@H]1C(=O)N1CCC[C@H]1C(=O)N[C@@H](CO)C(N)=O)[C@@H](C)O)C(C)C)[C@@H](C)CC` [Example 72] (H-Y[Aib]EGTLISDYSI[αMeL]LDKK([AEEA-AEEA-γGlu-C20 diacid])HQ[Aib]EFVEYLLETGPSSGAPPPS-NH2): 837 nM, 437 nM and 0.0594 nM.
